# Measured values as given in patent publication US20020137929A1, “1 - (3-heterocyclylphenyl) isothiourea, -isourea, -guanidine and -amidine herbicidal agents” (Intellectual Property Department, BASF Aktiengesellschaft, priority 1998, published 2002).
# Key:
# SETVI (Foxtail, Green) [1] = assay: Postemergence herbicidal evaluation; format: in vivo, Setaria viridis; settings: for SETVI herbicidal rating: postemergence
# In short: (§1)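 Young plants, roughly two weeks from seeding, receive the active ingredient as a sprayed dispersion (acetone/water 50/50, 0.5% TWEEN 20) at 40 psi. Doses span about 0.0156 to 0.500 kg/ha. A visual score from 0 to 9 compares treated with control plants four to five weeks on.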
# [2] = test system: GLXMAW (Soybean, Williams); assay: Postemergence herbicidal evaluation; format: in vivo, Glycine max, (L.) Merr. cv Williams; settings: for GLXMAW herbicidal rating: postemergence
# In short: as §1
# ABUTH (Velvetleaf) = assay: Postemergence herbicidal evaluation; format: in vivo, Abutilon theophrasti; settings: for ABUTH herbicidal rating: postemergence
# In short: as §1
# AMBEL (Ragweed, Common) = assay: Preemergence herbicidal evaluation; format: in vivo, Ambrosia artemisifolia; settings: rated 4-5 weeks after treatment
# In short: (§2)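 Seeds were planted in potting soil in cups, then sprayed preemergence with the test compound in aqueous acetone at about 0.0156 to 0.500 kg per hectare. Cups were kept under greenhouse conditions and visually rated 4–5 weeks after treatment on a 0–9 scale against an untreated control.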
# [3] = test system: CHEAL (Lambsquarters, Common); assay: Postemergence herbicidal evaluation; format: in vivo, Chenopodium album; settings: for CHEAL herbicidal rating: postemergence
# In short: as §1
# CYPIR (Rice Flatsedge) = assay: Preemergence weed control under flooded paddy conditions; format: in vivo, Cyperus iria; settings: rated 3-4 weeks after treatment
# In short: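 Seeds or propagules sown in silt loam kept flooded 1.5-3 cm; compounds in 50/50 acetone/water pipetted into flood water at about 0.0313 to 0.500 kg/ha. Greenhouse; visual 0-9 rating versus untreated control 3-4 weeks after treatment.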
# [4] = test system: TRZAWR (Wheat, Winter, cv Riband); assay: Postemergence herbicidal evaluation; format: in vivo, Triticum aestivum; settings: for TRZAWR herbicidal rating: postemergence
# In short: as §1
# [5] = test system: ECHORC (Watergrass (Calif.)); assay: Postemergence weed control under flooded paddy conditions; format: in vivo, Echinochloa oryzoides; settings: postemergence weeds
# In short: (§3)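 Containers holding 3–5 cm weeds and rice at 1.5–2.5 leaves are flooded to 1.5–3 cm above soil. Compound in 50/50 v/v aqueous/acetone is then added directly to the water, about 0.0313–0.500 kg/ha. Plants are kept in the greenhouse and rated 0–9 visually at 3–4 weeks.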
# GALAP (Galium) = assay: Preemergence herbicidal evaluation; format: in vivo, Galium aparine; settings: rated 4-5 weeks after treatment
# In short: as §2
# SETVI (Foxtail, Green) [6] = assay: Preemergence herbicidal evaluation; format: in vivo, Setaria viridis; settings: rated 4-5 weeks after treatment
# In short: as §2
# [7] = test system: SAGPY (Arrowhead (Pygmaea)); assay: Postemergence weed control under flooded paddy conditions; format: in vivo, Sagittaria pygmaea; settings: postemergence weeds
# In short: as §3
# ORYSAT (Rice, Tebonnet) = assay: Postemergence herbicidal evaluation; format: in vivo, Oryza sativa, (L.) Tebonnet; settings: for ORYSAT herbicidal rating: postemergence
# In short: as §1
# CYPSE (Flatsedge) = assay: Postemergence weed control under flooded paddy conditions; format: in vivo, Cyperus serotinus; settings: postemergence weeds
# In short: as §3
# ZEAMX (Corn, Field) = assay: Postemergence herbicidal evaluation; format: in vivo, Zea mays; settings: for ZEAMX herbicidal rating: postemergence
# In short: as §1
# [8] = Rate 0.0313 kg/ha, rated 3 to 4 weeks after treatment
# [9] = Rate 0.0625 kg/ha, rated 3 to 4 weeks after treatment
# [10] = Rate 0.1250 kg/ha, rated 3 to 4 weeks after treatment
# [11] = Rate 0.2500 kg/ha, rated 3 to 4 weeks after treatment
# [12] = rate 0.0313 kg/ha, 3-4 weeks after treatment
# [13] = rate 0.0625 kg/ha, 3-4 weeks after treatment
# [14] = rate 0.1250 kg/ha, 3-4 weeks after treatment
# [15] = rate 0.2500 kg/ha, 3-4 weeks after treatment
smiles,measurement,setting,value
"C#CCOC(=O)CC1SC(=Nc2cc(-n3c(=O)cc(C(F)(F)F)n(C)c3=O)c(F)cc2Cl)N(CC=C)C1=O (centres unmarked) [Compound 67, 2-Propynyl 3-allyl-2-{{2-chloro-5-[3,6-dihydro-3-methyl-2,6-dioxo-4-(trifluoromethyl)-1(2H)-pyrimidinyl]-4-fluorophenyl}imino}-4-oxo-5-thiazolidineacetate]",SETVI herbicidal rating,"SETVI (Foxtail, Green) [1]; rate 0.0158 kg/ha",9.0
same,SETVI herbicidal rating,"SETVI (Foxtail, Green) [1]; rate 0.0315 kg/ha",9.0
same,SETVI herbicidal rating,"SETVI (Foxtail, Green) [1]; rate 0.0630 kg/ha",9.0
same,GLXMAW herbicidal rating,[2]; rate 0.0158 kg/ha,8.5
same,GLXMAW herbicidal rating,[2]; rate 0.0315 kg/ha,7.5
same,GLXMAW herbicidal rating,[2]; rate 0.0630 kg/ha,7.5
same,ABUTH herbicidal rating,ABUTH (Velvetleaf); rate 0.0158 kg/ha,5.0
same,ABUTH herbicidal rating,ABUTH (Velvetleaf); rate 0.0315 kg/ha,9.0
same,ABUTH herbicidal rating,ABUTH (Velvetleaf); rate 0.0630 kg/ha,9.0
same,Preemergence herbicidal rating AMBEL,"AMBEL (Ragweed, Common); rate 0.0156 kg/ha",0.0
same,Preemergence herbicidal rating AMBEL,"AMBEL (Ragweed, Common); rate 0.0313 kg/ha",0.0
same,Preemergence herbicidal rating AMBEL,"AMBEL (Ragweed, Common); rate 0.0625 kg/ha",3.0
same,Preemergence herbicidal rating AMBEL,"AMBEL (Ragweed, Common); rate 0.1250 kg/ha",7.0
same,Preemergence herbicidal rating AMBEL,"AMBEL (Ragweed, Common); rate 0.2500 kg/ha",7.0
same,CHEAL herbicidal rating,[3]; rate 0.0158 kg/ha,4.0
same,CHEAL herbicidal rating,[3]; rate 0.0315 kg/ha,6.0
same,CHEAL herbicidal rating,[3]; rate 0.0630 kg/ha,9.0
same,CYPIR herbicidal effect rating,CYPIR (Rice Flatsedge); 0.0313 kg/ha,5.0
same,CYPIR herbicidal effect rating,CYPIR (Rice Flatsedge); 0.0625 kg/ha,5.0
same,CYPIR herbicidal effect rating,CYPIR (Rice Flatsedge); 0.1250 kg/ha,5.0
same,CYPIR herbicidal effect rating,CYPIR (Rice Flatsedge); 0.2500 kg/ha,8.0
same,TRZAWR herbicidal rating,[4]; rate 0.0158 kg/ha,5.0
same,TRZAWR herbicidal rating,[4]; rate 0.0315 kg/ha,6.0
same,TRZAWR herbicidal rating,[4]; rate 0.0630 kg/ha,6.5
same,Herbicidal rating ECHORC,[5]; [8],0.0
same,Herbicidal rating ECHORC,[5]; [9],4.0
same,Herbicidal rating ECHORC,[5]; [10],5.0
same,Herbicidal rating ECHORC,[5]; [11],5.0
same,Preemergence herbicidal rating GALAP,GALAP (Galium); rate 0.0156 kg/ha,0.0
same,Preemergence herbicidal rating GALAP,GALAP (Galium); rate 0.0313 kg/ha,0.0
same,Preemergence herbicidal rating GALAP,GALAP (Galium); rate 0.0625 kg/ha,0.0
same,Preemergence herbicidal rating GALAP,GALAP (Galium); rate 0.1250 kg/ha,1.0
same,Preemergence herbicidal rating GALAP,GALAP (Galium); rate 0.2500 kg/ha,0.0
same,Preemergence herbicidal rating SETVI,"SETVI (Foxtail, Green) [6]; rate 0.0156 kg/ha",0.0
same,Preemergence herbicidal rating SETVI,"SETVI (Foxtail, Green) [6]; rate 0.0313 kg/ha",0.0
same,Preemergence herbicidal rating SETVI,"SETVI (Foxtail, Green) [6]; rate 0.0625 kg/ha",0.0
same,Preemergence herbicidal rating SETVI,"SETVI (Foxtail, Green) [6]; rate 0.1250 kg/ha",6.0
same,Preemergence herbicidal rating SETVI,"SETVI (Foxtail, Green) [6]; rate 0.2500 kg/ha",7.0
same,Herbicidal rating SAGPY,[7]; [8],0.0
same,Herbicidal rating SAGPY,[7]; [9],4.0
same,Herbicidal rating SAGPY,[7]; [10],4.0
same,Herbicidal rating SAGPY,[7]; [11],6.0
same,ORYSAT herbicidal rating,"ORYSAT (Rice, Tebonnet); rate 0.0158 kg/ha",4.0
same,ORYSAT herbicidal rating,"ORYSAT (Rice, Tebonnet); rate 0.0315 kg/ha",4.5
same,ORYSAT herbicidal rating,"ORYSAT (Rice, Tebonnet); rate 0.0630 kg/ha",5.0
same,Herbicidal rating CYPSE,CYPSE (Flatsedge); [8],0.0
same,Herbicidal rating CYPSE,CYPSE (Flatsedge); [9],3.0
same,Herbicidal rating CYPSE,CYPSE (Flatsedge); [10],3.0
same,Herbicidal rating CYPSE,CYPSE (Flatsedge); [11],3.0
same,ZEAMX herbicidal rating,"ZEAMX (Corn, Field); rate 0.0158 kg/ha",7.5
same,ZEAMX herbicidal rating,"ZEAMX (Corn, Field); rate 0.0315 kg/ha",8.0
same,ZEAMX herbicidal rating,"ZEAMX (Corn, Field); rate 0.0630 kg/ha",8.0
"COC(=O)CCCN1C(=O)CSC1=Nc1cc(-n2c(=O)cc(C(F)(F)F)n(C)c2=O)c(F)cc1Cl [Compound 29, Methyl 2-{{2-chloro-5-[3,6-dihydro-3-methyl-2,6-dioxo-4-(trifluoromethyl)-1(2H)-pyrimidinyl]-4-fluorophenyl}imino}-4-oxo-3-thiazolidinebutyrate]",Postemergence herbicidal rating SETVI,"SETVI (Foxtail, Green) [1]; Rate 0.0158 kg/ha",0.0
same,Postemergence herbicidal rating SETVI,"SETVI (Foxtail, Green) [1]; Rate 0.0315 kg/ha",1.0
same,Postemergence herbicidal rating SETVI,"SETVI (Foxtail, Green) [1]; Rate 0.0630 kg/ha",4.0
same,Postemergence herbicidal rating GLXMAW,[2]; Rate 0.0158 kg/ha,6.5
same,Postemergence herbicidal rating GLXMAW,[2]; Rate 0.0315 kg/ha,7.5
same,Postemergence herbicidal rating GLXMAW,[2]; Rate 0.0630 kg/ha,8.0
same,Postemergence herbicidal rating ABUTH,ABUTH (Velvetleaf); Rate 0.0158 kg/ha,9.0
same,Postemergence herbicidal rating ABUTH,ABUTH (Velvetleaf); Rate 0.0315 kg/ha,7.0
same,Postemergence herbicidal rating ABUTH,ABUTH (Velvetleaf); Rate 0.0630 kg/ha,9.0
same,Preemergence herbicidal rating AMBEL,"AMBEL (Ragweed, Common); rate 0.0625 kg/ha",0.0
same,Preemergence herbicidal rating AMBEL,"AMBEL (Ragweed, Common); rate 0.1250 kg/ha",0.0
same,Preemergence herbicidal rating AMBEL,"AMBEL (Ragweed, Common); rate 0.2500 kg/ha",0.0
same,Postemergence herbicidal rating CHEAL,[3]; Rate 0.0158 kg/ha,1.0
same,Postemergence herbicidal rating CHEAL,[3]; Rate 0.0315 kg/ha,1.0
same,Postemergence herbicidal rating CHEAL,[3]; Rate 0.0630 kg/ha,5.0
same,Herbicidal rating CYPIR,CYPIR (Rice Flatsedge); 0.0313 kg/ha,0.0
same,Herbicidal rating CYPIR,CYPIR (Rice Flatsedge); 0.0625 kg/ha,0.0
same,Herbicidal rating CYPIR,CYPIR (Rice Flatsedge); 0.1250 kg/ha,0.0
same,Herbicidal rating CYPIR,CYPIR (Rice Flatsedge); 0.2500 kg/ha,0.0
same,Postemergence herbicidal rating TRZAWR,[4]; Rate 0.0158 kg/ha,4.5
same,Postemergence herbicidal rating TRZAWR,[4]; Rate 0.0315 kg/ha,5.0
same,Postemergence herbicidal rating TRZAWR,[4]; Rate 0.0630 kg/ha,5.5
same,Herbicidal rating ECHORC,[5]; [12],4.0
same,Herbicidal rating ECHORC,[5]; [13],7.0
same,Herbicidal rating ECHORC,[5]; [14],7.0
same,Herbicidal rating ECHORC,[5]; [15],7.0
same,Preemergence herbicidal rating GALAP,GALAP (Galium); rate 0.0625 kg/ha,0.0
same,Preemergence herbicidal rating GALAP,GALAP (Galium); rate 0.1250 kg/ha,0.0
same,Preemergence herbicidal rating GALAP,GALAP (Galium); rate 0.2500 kg/ha,0.0
same,Preemergence herbicidal rating SETVI,"SETVI (Foxtail, Green) [6]; rate 0.0625 kg/ha",0.0
same,Preemergence herbicidal rating SETVI,"SETVI (Foxtail, Green) [6]; rate 0.1250 kg/ha",0.0
same,Preemergence herbicidal rating SETVI,"SETVI (Foxtail, Green) [6]; rate 0.2500 kg/ha",9.0
same,Herbicidal rating SAGPY,[7]; [12],0.0
same,Herbicidal rating SAGPY,[7]; [13],0.0
same,Herbicidal rating SAGPY,[7]; [14],0.0
same,Herbicidal rating SAGPY,[7]; [15],0.0
same,Postemergence herbicidal rating ORYSAT,"ORYSAT (Rice, Tebonnet); Rate 0.0158 kg/ha",1.0
same,Postemergence herbicidal rating ORYSAT,"ORYSAT (Rice, Tebonnet); Rate 0.0315 kg/ha",3.0
same,Postemergence herbicidal rating ORYSAT,"ORYSAT (Rice, Tebonnet); Rate 0.0630 kg/ha",3.5
same,Herbicidal rating CYPSE,CYPSE (Flatsedge); [12],0.0
same,Herbicidal rating CYPSE,CYPSE (Flatsedge); [13],0.0
same,Herbicidal rating CYPSE,CYPSE (Flatsedge); [14],0.0
same,Herbicidal rating CYPSE,CYPSE (Flatsedge); [15],0.0
same,Postemergence herbicidal rating ZEAMX,"ZEAMX (Corn, Field); Rate 0.0158 kg/ha",5.5
same,Postemergence herbicidal rating ZEAMX,"ZEAMX (Corn, Field); Rate 0.0315 kg/ha",5.5
same,Postemergence herbicidal rating ZEAMX,"ZEAMX (Corn, Field); Rate 0.0630 kg/ha",7.5
